Experimental data: PubChem BioAssay AID1963963 (Molecular Pharmacology Branch, DTP, NCI, 2024)

Test system: 958667-338-R-J2-PDC tumor spheroids viability
Assay: Anticancer human tumor 958667-338-R-J2-PDC patient-derived colon adenocarcinoma cell line growth inhibition [PI3K]
Conditions: spheroids with HUVEC and MSC; for IC50: curve of first compound; for viability, T/C: stronger effect = lower value
In short: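 Complex 3D spheroids (cancer cells + endothelial HUVEC + mesenchymal stem cells); drug pairs of targeted agent x inavolisib/alpelisib/duvelisib/copanlisib; half-log series from ~Cmax, max 10 microM if Cmax unknown; endpoint viability.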

[1] = second compound 0.00316 µM, first compound 0.0316 µM
[2] = second compound 0.00316 µM, first compound 0.1 µM
[3] = second compound 0.00316 µM, first compound 0.316 µM
[4] = second compound 0.00316 µM, first compound 1 µM
[5] = second compound 0.00316 µM, first compound 3.16 µM
[6] = second compound 0.00316 µM, first compound 10 µM
[7] = second compound 0.01 µM, first compound 0.0316 µM
[8] = second compound 0.01 µM, first compound 0.1 µM
[9] = second compound 0.01 µM, first compound 0.316 µM
[10] = second compound 0.01 µM, first compound 1 µM
[11] = second compound 0.01 µM, first compound 3.16 µM
[12] = second compound 0.01 µM, first compound 10 µM
[13] = second compound 0.0316 µM, first compound 0.0316 µM
[14] = second compound 0.0316 µM, first compound 0.1 µM
[15] = second compound 0.0316 µM, first compound 0.316 µM
[16] = second compound 0.0316 µM, first compound 1 µM
[17] = second compound 0.0316 µM, first compound 3.16 µM
[18] = second compound 0.0316 µM, first compound 10 µM
[19] = second compound 0.1 µM, first compound 0.0316 µM
[20] = second compound 0.1 µM, first compound 0.1 µM
[21] = second compound 0.1 µM, first compound 0.316 µM
[22] = second compound 0.1 µM, first compound 1 µM
[23] = second compound 0.1 µM, first compound 3.16 µM
[24] = second compound 0.1 µM, first compound 10 µM
[25] = second compound 0.316 µM, first compound 0.0316 µM
[26] = second compound 0.316 µM, first compound 0.1 µM
[27] = second compound 0.316 µM, first compound 0.316 µM
[28] = second compound 0.316 µM, first compound 1 µM
[29] = second compound 0.316 µM, first compound 3.16 µM
[30] = second compound 0.316 µM, first compound 10 µM
[31] = second compound 1 µM, first compound 0.0316 µM
[32] = second compound 1 µM, first compound 0.1 µM
[33] = second compound 1 µM, first compound 0.316 µM
[34] = second compound 1 µM, first compound 1 µM
[35] = second compound 1 µM, first compound 3.16 µM
[36] = second compound 1 µM, first compound 10 µM
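Further: spheroids exposed to compounds for seven days before readout.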

For `C#Cc1c(F)ccc2cc(O)cc(-c3ncc4c(N5CC6CCC(C5)N6)nc(OCC56CCCN5CC(F)C6)nc4c3F)c12` (stereo unspecified) + CC(Nc1ccc2c(c1)OCCn1cc(N3C(=O)OCC3C(F)F)nc1-2)C(N)=O, which IC50 (second compound 0.00316 µM) is on record?
The IC50 was greater than 10 µM.

What about the IC50 (second compound 0.01 µM) of the same compound?
The IC50 was greater than 10 µM.

What about the IC50 (second compound 0.0316 µM) of the same compound?
The IC50 was 8.56 µM.

And the IC50 (second compound 0.1 µM)?
Its IC50 is 6.62 µM.

What about the IC50 (second compound 0.316 µM) of the same compound?
Its IC50 is 3.47 µM.

What about the IC50 (second compound 1 µM) of the same compound?
The IC50 was 1.4 µM.

What about the viability, T/C [1] of the same compound?
Its viability, T/C is 95.2%.

And the viability, T/C [2]?
The viability, T/C was 97.9%.

And the viability, T/C [3]?
The viability, T/C was 110%.

And the viability, T/C [4]?
Its viability, T/C is 90.9%.

What about the viability, T/C [5] of the same compound?
The viability, T/C was 90.6%.

What about the viability, T/C [6] of the same compound?
The viability, T/C was 60.7%.

What about the viability, T/C [7] of the same compound?
The viability, T/C was 101%.

And the viability, T/C [8]?
Its viability, T/C is 120%.

What about the viability, T/C [9] of the same compound?
The viability, T/C was 121%.

And the viability, T/C [10]?
Its viability, T/C is 97.3%.

What about the viability, T/C [11] of the same compound?
The viability, T/C was 74.2%.

What about the viability, T/C [12] of the same compound?
The viability, T/C was 74.2%.

What about the viability, T/C [13] of the same compound?
Its viability, T/C is 99.9%.

And the viability, T/C [14]?
Its viability, T/C is 109%.

What about the viability, T/C [15] of the same compound?
Its viability, T/C is 100%.

And the viability, T/C [16]?
Its viability, T/C is 118%.

And the viability, T/C [17]?
The viability, T/C was 83.1%.

What about the viability, T/C [18] of the same compound?
Its viability, T/C is 44.8%.

What about the viability, T/C [19] of the same compound?
The viability, T/C was 69.2%.

And the viability, T/C [20]?
Its viability, T/C is 81%.

And the viability, T/C [21]?
Its viability, T/C is 77.4%.

What about the viability, T/C [22] of the same compound?
Its viability, T/C is 84.1%.

And the viability, T/C [23]?
The viability, T/C was 71.4%.

And the viability, T/C [24]?
The viability, T/C was 37.2%.

What about the viability, T/C [25] of the same compound?
The viability, T/C was 69.1%.

And the viability, T/C [26]?
Its viability, T/C is 62%.

And the viability, T/C [27]?
Its viability, T/C is 66.7%.

What about the viability, T/C [28] of the same compound?
The viability, T/C was 85.6%.

And the viability, T/C [29]?
Its viability, T/C is 52.4%.

What about the viability, T/C [30] of the same compound?
Its viability, T/C is 22.5%.

And the viability, T/C [31]?
The viability, T/C was 61%.

What about the viability, T/C [32] of the same compound?
The viability, T/C was 64.4%.

And the viability, T/C [33]?
The viability, T/C was 44.6%.

And the viability, T/C [34]?
Its viability, T/C is 57.2%.

What about the viability, T/C [35] of the same compound?
The viability, T/C was 45%.

And the viability, T/C [36]?
The viability, T/C was 25.6%.

Which results are given for `CC(Cn1ccc(-c2ccc(C#N)c(Cl)c2)n1)NC(=O)c1cc(C(C)O)[nH]n1` (stereo unspecified) + CC(Nc1ccc2c(c1)OCCn1cc(N3C(=O)OCC3C(F)F)nc1-2)C(N)=O?
IC50 (second compound 0.00316 µM): > 10 µM; IC50 (second compound 0.01 µM): > 10 µM; IC50 (second compound 0.0316 µM): > 10 µM; IC50 (second compound 0.1 µM): > 10 µM; IC50 (second compound 0.316 µM): > 10 µM; IC50 (second compound 1 µM): > 10 µM; viability, T/C [1]: 118%; viability, T/C [2]: 111%; viability, T/C [3]: 126%; viability, T/C [4]: 117%; viability, T/C [5]: 84.7%; viability, T/C [6]: 99.2%; viability, T/C [7]: 92.7%; viability, T/C [8]: 106%; viability, T/C [9]: 77.4%; viability, T/C [10]: 91.4%; viability, T/C [11]: 90.6%; viability, T/C [12]: 90.5%; viability, T/C [13]: 89.8%; viability, T/C [14]: 99.9%; viability, T/C [15]: 97.8%; viability, T/C [16]: 93%; viability, T/C [17]: 95%; viability, T/C [18]: 75.2%; viability, T/C [19]: 111%; viability, T/C [20]: 88.9%; viability, T/C [21]: 81.1%; viability, T/C [22]: 78.6%; viability, T/C [23]: 91.1%; viability, T/C [24]: 82.4%; viability, T/C [25]: 80%; viability, T/C [26]: 49.7%; viability, T/C [27]: 84.5%; viability, T/C [28]: 63.6%; viability, T/C [29]: 63.7%; viability, T/C [30]: 78.8%; viability, T/C [31]: 64.2%; viability, T/C [32]: 61.2%; viability, T/C [33]: 66.1%; viability, T/C [34]: 62.8%; viability, T/C [35]: 55.7%; viability, T/C [36]: 49.8%

For `CC1(C)CCC(Nc2ncc(C(F)(F)F)c(-c3c[nH]c4c(P(C)(C)=O)c(C#N)ccc34)n2)CN1` (stereo unspecified) + CC(Nc1ccc2c(c1)OCCn1cc(N3C(=O)OCC3C(F)F)nc1-2)C(N)=O, which IC50 (second compound 0.00316 µM) is on record?
Its IC50 is 4.62 µM.

And the IC50 (second compound 0.01 µM)?
Its IC50 is 2.8 µM.

What about the IC50 (second compound 0.0316 µM) of the same compound?
Its IC50 is 2.55 µM.

What about the IC50 (second compound 0.1 µM) of the same compound?
Its IC50 is 4.67 µM.

What about the IC50 (second compound 0.316 µM) of the same compound?
Its IC50 is 1.68 µM.

What about the IC50 (second compound 1 µM) of the same compound?
Its IC50 is 1.64 µM.

And the viability, T/C [1]?
Its viability, T/C is 108%.

And the viability, T/C [2]?
The viability, T/C was 85.9%.

And the viability, T/C [3]?
Its viability, T/C is 79.7%.

What about the viability, T/C [4] of the same compound?
Its viability, T/C is 75.2%.

What about the viability, T/C [5] of the same compound?
The viability, T/C was 67.8%.

What about the viability, T/C [6] of the same compound?
Its viability, T/C is 29.5%.

What about the viability, T/C [7] of the same compound?
Its viability, T/C is 135%.

And the viability, T/C [8]?
The viability, T/C was 109%.

What about the viability, T/C [9] of the same compound?
Its viability, T/C is 76.9%.

What about the viability, T/C [10] of the same compound?
Its viability, T/C is 63.2%.

And the viability, T/C [11]?
Its viability, T/C is 67.6%.

And the viability, T/C [12]?
Its viability, T/C is 20.1%.

And the viability, T/C [13]?
Its viability, T/C is 111%.

And the viability, T/C [14]?
Its viability, T/C is 108%.

And the viability, T/C [15]?
Its viability, T/C is 58.2%.

And the viability, T/C [16]?
The viability, T/C was 60.7%.

What about the viability, T/C [17] of the same compound?
Its viability, T/C is 64.6%.

And the viability, T/C [18]?
Its viability, T/C is 25.7%.

And the viability, T/C [19]?
The viability, T/C was 95.2%.

What about the viability, T/C [20] of the same compound?
Its viability, T/C is 78.6%.

What about the viability, T/C [21] of the same compound?
Its viability, T/C is 71.5%.

And the viability, T/C [22]?
The viability, T/C was 75.8%.

What about the viability, T/C [23] of the same compound?
Its viability, T/C is 66.8%.

What about the viability, T/C [24] of the same compound?
The viability, T/C was 24.3%.

And the viability, T/C [25]?
The viability, T/C was 78.7%.

What about the viability, T/C [26] of the same compound?
Its viability, T/C is 78.7%.

And the viability, T/C [27]?
Its viability, T/C is 53.1%.

And the viability, T/C [28]?
The viability, T/C was 54%.

And the viability, T/C [29]?
The viability, T/C was 55.9%.

And the viability, T/C [30]?
The viability, T/C was 26.2%.

What about the viability, T/C [31] of the same compound?
Its viability, T/C is 86.9%.

What about the viability, T/C [32] of the same compound?
The viability, T/C was 66.8%.

What about the viability, T/C [33] of the same compound?
The viability, T/C was 67.2%.

What about the viability, T/C [34] of the same compound?
The viability, T/C was 52.8%.

What about the viability, T/C [35] of the same compound?
The viability, T/C was 50.8%.

What about the viability, T/C [36] of the same compound?
Its viability, T/C is 14.3%.
